Results on ten compounds are retold here after patent US5378838A, “Benzodiazepine cholecystokinin antagonists” (Merck & Co., Inc., priority 1993, dated 1995).

One assay has as its target T1, CCK receptor (pancreas) (Rattus norvegicus, UniProt P30551).
T1 construct: The whole pancreas was dissected free of fat tissue and was homogenized; from tissue; host or cells: whole pancreas membranes of male Sprague-Dawley rats
T1 sequence (P30551 1-444): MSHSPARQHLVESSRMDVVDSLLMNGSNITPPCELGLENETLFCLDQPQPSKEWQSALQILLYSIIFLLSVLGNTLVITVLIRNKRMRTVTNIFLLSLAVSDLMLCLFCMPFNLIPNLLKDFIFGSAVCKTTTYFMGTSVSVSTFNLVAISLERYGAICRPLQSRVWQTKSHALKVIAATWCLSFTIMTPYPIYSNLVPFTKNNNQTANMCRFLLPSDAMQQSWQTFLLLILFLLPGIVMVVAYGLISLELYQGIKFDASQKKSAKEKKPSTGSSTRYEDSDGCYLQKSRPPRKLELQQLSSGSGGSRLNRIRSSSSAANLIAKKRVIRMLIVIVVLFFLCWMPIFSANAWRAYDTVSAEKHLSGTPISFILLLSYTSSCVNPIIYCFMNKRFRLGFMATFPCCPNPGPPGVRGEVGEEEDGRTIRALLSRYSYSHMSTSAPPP
Briefly: CCK Receptor Binding (Pancreas), inhibition of 125I-CCK-8 binding. The arrangement: species or system rat (male Sprague-Dawley). As for the experimental part: 1. CCK Receptor Binding (Pancreas)
Male Sprague-Dawley rats (150-200 g) were sacrificed by decapitation. The whole pancreas was dissected free of fat tissue and was homogenized in 25 volumes of ice-cold 10 mM Hepes buffer with 0.1% soya bean trypsin inhibitor (pH 7.4 at 25° C.) with a Kinematica Polytron. The homogenates were centrifuged at 47,800 g for 10 min. Pellets were resuspended in 10 volumes of binding assay buffer (20 mM Hepes, 1 mM EGTA, 5 mM MgCl2, 150 mM NaCl, bacitracin 0.25 mg/ml, soya bean trypsin inhibitor 0.1 mg/ml, and bovine serum albumin 2 mg/ml, pH 6.5 at 25° C.) using a teflon homogenizer, 15 strokes at 500 rpm. The homogenate was further diluted in binding assay buffer to give a final concentration of 0.5 mg original wet weight/l ml buffer. […] All assays were run in duplicate. The reaction mixtures were incubated at 25° C. for 2 hours and the reaction terminated by rapid filtration (Brandell 24 well cell harvester) over Whatman GF/C filters, washing 3×4 mls with ice-cold 100 mM NaCl. The radioactivity on the filters was counted with a LKB gamma counter.
Drug displacement studies were performed with at least 10 concentrations of compounds of formula 1 and the IC50 values were determined by regression analysis.

The target in the next assay is T2, CCK receptor (brain) (Cavia porcellus, UniProt H0VZC5).
T2 construct: the cortex was removed and homogenized in 25 mL ice-cold 0.32M sucrose; from tissue; host or cells: cortex P2 membranes of male Hartley guinea pigs
T2 sequence (H0VZC5 1-426): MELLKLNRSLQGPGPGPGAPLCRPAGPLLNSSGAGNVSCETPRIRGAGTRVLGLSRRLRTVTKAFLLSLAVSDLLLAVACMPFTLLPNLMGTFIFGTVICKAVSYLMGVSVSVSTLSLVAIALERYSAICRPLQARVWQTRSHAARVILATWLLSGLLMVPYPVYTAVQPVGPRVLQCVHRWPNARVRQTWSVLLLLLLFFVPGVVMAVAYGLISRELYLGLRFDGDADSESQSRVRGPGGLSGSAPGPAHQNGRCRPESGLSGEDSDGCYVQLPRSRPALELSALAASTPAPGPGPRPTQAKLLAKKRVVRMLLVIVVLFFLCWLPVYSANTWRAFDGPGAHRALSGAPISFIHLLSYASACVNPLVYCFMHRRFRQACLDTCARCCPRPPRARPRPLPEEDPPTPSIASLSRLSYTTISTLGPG
Briefly: CCK Receptor Binding (Brain), inhibition of 125I-CCK-8 binding. Details: species or system guinea pig (male Hartley). The conditions noted are these: guinea pig cortex, 50 pM 125I-CCK-8, pH 6.5, 25° C., 2 hours.

Setting [1] is: rat pancreas, 50 pM 125I-CCK-8, pH 6.5, 25° C., 2 hours, read-out: IC50 125I-CCK Pancreas.

Where two headings read alike, the source gives them in different places. A value given as a limit tells only on which side of the number the result lay.

By IC50 is commonly meant the midpoint of a concentration-inhibition curve.

Procedure for CCK receptor (brain): CCK-8 sulphated was radiolabelled and the binding was performed according to the description for the pancreas method with minor modifications.
Male Hartley guinea pigs (300-500g) were sacrificed by decapitation and the cortex was removed and homogenized in 25 mL ice-cold 0.32M sucrose. The homogenates were centrifuged at 1000 g for 10 minutes and the resulting supernatant was recentrifuged at 20,000 g for 20 minutes. […] All assays were run in duplicate. The reaction mixtures were incubated at 25° C. for 2 hours and then the reaction was terminated on Whatman GF/C filters by rapid filtration (Brandell 24 well cell Harvester) with 3×5 ml washes of cold 100 mM NaCl. The radioactivity on the filters was then counted with a LKB gamma counter.
Drug displacement studies were performed with at least 10 concentrations of compounds of formula 1 and the IC50 values were determined by regression analysis. IC50 refers to the concentration of the compound required to inhibit 50% of specific binding of ^125 I-CCK-8.

For the compound `COC(=O)[C@H](Cc1cccc(NC(=O)N[C@@H]2N=C(c3ccccc3)c3ccccc3N(C)C2=O)c1)NC(=O)OC(C)(C)C` [Example 1, N-{(3R)-1,3-Dihydro-1-methyl-2-oxo-5-phenyl-1H-1,4-benzodiazepin-3-yl}-N'-{[3-((2S)-tertbutyloxycarbonylamino-2-methoxycarbonyl)ethylphenyl]urea}], the IC50 was over 3000 nM on CCK receptor (pancreas) and 29.6 nM on CCK receptor (brain).

Turning to `COC(=O)[C@@H](N)Cc1cccc(NC(=O)N[C@@H]2N=C(c3ccccc3)c3ccccc3N(C)C2=O)c1` [Example 2, N-{(3R)-1,3-Dihydro-1-methyl-2-oxo-5-phenyl-1H-1,4-benzodiazepin-3-yl}-N'-{[3-((2S)-amino-2-methoxycarbonyl)ethylphenyl]-urea}], the IC50 was over 3000 nM on CCK receptor (pancreas) and 114 nM on CCK receptor (brain).

Consider `CN1C(=O)[C@H](NC(=O)Nc2cccc(C[C@H](N)C(=O)O)c2)N=C(c2ccccc2)c2ccccc21` [Example 3, N-{(3R)-1,3-Dihydro-1-methyl-2-oxo-5-phenyl-1H-1,4-benzodiazepin-3-yl}-N'-{[3-((2S)-amino-2-carboxy)ethylphenyl]-urea}], for which the IC50 on CCK receptor (pancreas) (read-out: IC50 125I-CCK Pancreas, rat pancreas, 50 pM 125I-CCK-8, pH 6.5, 25° C., 2 hours) is over 3000 nM; at CCK receptor (brain), 61.3 nM.

Regarding `COC(=O)[C@H](Cc1cccc(NC(=O)N[C@@H]2N=C(C3CCCCC3)c3ccccc3N(C)C2=O)c1)NC(=O)OC(C)(C)C` [Example 4, N-{(3R)-1,3-Dihydro-1-methyl-2-oxo-5-cyclohexyl-1H-1,4-benzodiazepin-3-yl}-N'-{[3-((2S)-tert-butyloxycarbonylamino-2-methoxycarbonyl)ethylphenyl]-urea}], the IC50 amounted to 961 nM on CCK receptor (pancreas) (setting [1]) and 3.9 nM at CCK receptor (brain).

Take `COC(=O)[C@@H](N)Cc1cccc(NC(=O)N[C@@H]2N=C(C3CCCCC3)c3ccccc3N(C)C2=O)c1` [Example 5, N-{(3R)-1,3-Dihydro-1-methyl-2-oxo-5-cyclohexyl-1H-1,4-benzodiazepin-3-yl}-N'-{[3-((2S)-amino-2-methoxycarbonyl)ethylphenyl]-urea}]: the IC50 on CCK receptor (pancreas) (setting [1]) amounted to 924 nM; on CCK receptor (brain) it was 9.2 nM.

`CN1C(=O)[C@H](NC(=O)Nc2cccc(C[C@H](N)C(=O)O)c2)N=C(C2CCCCC2)c2ccccc21` [Example 6, N-{(3R)-1,3-Dihydro-1-methyl-2-oxo-5-cyclohexyl-1H-1,4-benzodiazepin-3-yl}-N'-{[3-((2S )amino-2-carboxy)ethylphenyl]-urea}]: the IC50 on CCK receptor (pancreas) (setting [1]) was 1790 nM; on CCK receptor (brain), 1.1 nM.

`COC(=O)[C@@H](NC(=O)OC(C)(C)C)c1cccc(NC(=O)N[C@@H]2N=C(c3ccccc3)c3ccccc3N(C)C2=O)c1` [Example 7, N-{(3R)-1,3-Dihydro-1-methyl-2-oxo-5-phenyl-1H-1,4-benzodiazepin-3-yl}-N'-{[3-((1S)-tert-butyloxycarbonylamino-1-methoxycarbonyl)methylphenyl]-urea}]: the IC50 was over 3000 nM at CCK receptor (pancreas) and 1980 nM on CCK receptor (brain).

Regarding `COC(=O)[C@@H](N)c1cccc(NC(=O)N[C@@H]2N=C(c3ccccc3)c3ccccc3N(C)C2=O)c1` [Example 8, N-{(3R)-1,3-Dihydro-1-methyl-2-oxo-5-phenyl-1H-1,4-benzodiazepin-3-yl}-N'-{[3-((1S )-amino-1-methoxycarbonyl)methylphenyl]-urea}], the IC50 on CCK receptor (pancreas) was over 3000 nM; on CCK receptor (brain), 958 nM.

On CCK receptor (brain), `COC(=O)CC(N)c1cccc(NC(=O)N[C@@H]2N=C(c3ccccc3)c3ccccc3N(C)C2=O)c1` (stereo partly drawn) [Example 12, N-{(3R)-1,3-Dihydro-1-methyl-2-oxo-5-phenyl-1H-1,4-benzodiazepin-3-yl}-N,- {[3-((1R,S)-amino-2-methoxycarbonyl)ethylphenyl]-urea}] registered an IC50 of over 3000 nM.

Regarding `COC(=O)C1(NC(=O)OC(C)(C)C)CCc2cc(NC(=O)N[C@@H]3N=C(c4ccccc4)c4ccccc4N(C)C3=O)ccc2C1` (stereo partly drawn) [Example 18, N-{(3R)-1,3-Dihydro-1-methyl-2-oxo-5-phenyl-1H-1,4-benzodiazepin-3-yl}-N'-{[6-(methyl-2-(R,S)-tert-butyloxycarbonylamino-1,2,3,4-tetrahydro-2-naphthoate)]-urea}], the IC50 at CCK receptor (brain) was over 3000 nM.
